EP0084597A1, “Triazole and imidazole derivatives and pharmaceutical preparations containing them” (BAYER AG, priority 1981, dated 1983)
In brackets after ≈: the same amount, converted by molar mass.

Key:
[1] = test system: Candida-Zellen; assay: Antimycotic in-vivo activity (oral) in mouse candidosis; set-up: species or system Mäuse vom Typ SPF-CF1; key: +++++: sehr gute Wirkung = 90 % Ueberlebende am 6.Tag p.i.; ++++: gute Wirkung = 80 % Ueberlebende am 6.Tag p.i.; +++: Wirkung = 60 % Ueberlebende am 6.Tag p.i.; ++: schwache Wirkung = 40 % Ueberlebende am 6.Tag p.i.; +: Spur Wirkung; k.W.: keine Wirkung
Description: Mäuse vom Typ SPF-CF1 wurden intravenös mit 1 - 2 x 10^6 logarithmisch wachsenden Candida-Zellen, die in physiologischer Kochsalzlösung suspendiert werden, infiziert. Eine Stunde vor und sieben Stunden nach der Infektion werden die Tiere mit jeweils 50 - 100 mg/kg Körpergewicht der Präparate oral behandelt.
Uhbehandelte Tiere starben 3 bis 6 Tage post infektionem. Die Ueberlebensrate am 6.Tag post infektionem betrug bei uhbehandelten Kontrolltieren etwa 5 %.
• +++++ = sehr gute Wirkung = 90 % Ueberlebende am 6.Tag p.i. • ++++ = gute Wirkung = 80 % Ueberlebende am 6.Tag p.i. • +++ = Wirkung = 60 % Ueberlebende am 6.Tag p.i. • ++ = schwache Wirkung = 40 % Ueberlebende am 6.Tag p.i. • + = Spur Wirkung = k.W. = keine Wirkung

[2] = test system: Trichophyton mentagr.; assay: Antimycotic in-vitro activity, serial dilution test (MIC); type: cell-based, Trichophyton mentagrophytes; conditions: Sabouraud medium, 20°C, 96 hours, inoculum 5 x 10^4 germs/ml; for MIC: Trichophyton, read-out: MHK-Werte in γ/ml Nährmedium, Trichophyton mentagr.
Description: (§1) Die in-vitro-Prüfungen wurden im Reihenverdünnungstest mit Keiminokula von durchschnittlich 5 x 10^4 Keimen/ml Substrat durchgeführt. Als Nährmedium dienten • a) für Dermatophyten und Schimmelpilze: Sabourand's milieu d'epreuve • b) für Hefen: Fleischextrakt-Traubenzucker-Bouillon.
(§2) Die Bebrütungstemperatur betrug 20°C, die Bebrütungsdauer lag bei 24 bis 96 Stunden bei Hefen und 96 Stunden bei Dermatophyten und Schimmelpilzen.

[3] = test system: Trichophyton mentagrophytes; assay: Antimycotic in-vivo activity (local) in experimental guinea pig trichophytosis; set-up: species or system Meerschweinchen; key to Wirkung: +++++: sehr gute Wirkung = keine Infektionszeichen am 12.-15.Tag p.i.; ++++: gute Wirkung = geringe Rötung, vereinzelt Schuppen; +++: Wirkung = Rötung, Schuppung, ohne Haarausfall; ++: schwache Wirkung = Rötung, Schuppung, Haarausfall; +: Spur Wirkung = flächiger Haarausfall, entzündliche Hautreaktion; conditions: for Wirkungen: local treatment; for Wirkung: local treatment 1x daily from day 3 p.i. with a 15% solution in dimethylsulfoxide : glycerol = 1 : 4, signs of infection day 12-15 p.i.
[4] = test system: Microsporum canis; assay: Antimycotic in-vitro activity, serial dilution test (MIC); type: cell-based; conditions: Sabouraud medium, 20°C, inoculum 5 x 10^4 germs/ml; for MHK-Werte in γ/ml Nährmedium, Microsporum canis: 96 hours; for MIC: Microsporum canis, 96 h, read-out: MHK-Werte in γ/ml Nährmedium, Microsporum canis
Description: as §1, §2

[5] = test system: Candida albicans; assay: as above; type: cell-based; conditions: meat extract-glucose broth, 20°C, 24 to 96 hours, inoculum 5 x 10^4 germs/ml; for MIC: Candida albicans, read-out: MHK-Werte in γ/ml Nährmedium, Candida albicans
Description: as §1, §2

[6] = test system: Torulopsis glabrata; assay: as above; type: cell-based; conditions: meat extract-glucose broth, 20°C, 24 to 96 hours, inoculum 5 x 10^4 germs/ml; for MIC: Nakaseomyces glabratus, read-out: MHK-Werte in γ/ml Nährmedium, Torulopsis glabrata
Description: as §1, §2

[7] = test system: Dermatophyten und Schimmelpilze, Hefen; assay: Antimycotic in-vitro activity, serial dilution test, overall comparison with known compounds; type: cell-based; conditions: compared with known compounds (A),(B),(C) and (D)
Description: as §1, §2

[8] = test system: Aspergillus fumig.; assay: Antimycotic in-vitro activity, serial dilution test (MIC); type: cell-based, Aspergillus fumigatus; conditions: Sabouraud medium, 20°C, inoculum 5 x 10^4 germs/ml; for MIC: Aspergillus, 96 h, read-out: MHK-Werte in γ/ml Nährmedium, Aspergillus fumig.
Description: as §1, §2

[9] = mice infected i.v. with 1 - 2 x 10^6 Candida cells, oral 50 - 100 mg/kg one hour before and seven hours after infection, survivors on day 6 p.i.
[10] = mouse candidosis, oral, compared with known compounds (A), (B), (C) and (D)

Compound	Wirkung [1, 9]	Wirkung [1, 10]	MHK-Werte in γ/ml Nährmedium, Trichophyton mentagr. [2] [µg/mL]	Wirkungen [3]	Wirkung [3]	MHK-Werte in γ/ml Nährmedium, Microsporum canis [4] [µg/mL]	MHK-Werte in γ/ml Nährmedium, Candida albicans [5] [µg/mL]	MHK-Werte in γ/ml Nährmedium, Torulopsis glabrata [6] [µg/mL]	antimykotische Wirkung [7]	MHK-Werte in γ/ml Nährmedium, Aspergillus fumig. ([8]; 96 hours) [µg/mL]	MIC [2] [µg/mL]	MIC [4] [µg/mL]	MIC [5] [µg/mL]	MIC [6] [µg/mL]	MIC [8] [µg/mL]
CCC(C(O)c1ccc(Oc2ccc(Cl)cc2)cc1)n1cncn1 (single isomer, unassigned) [Beispiel 30]	+++ (Wirkung = 60 % Ueberlebende am 6.Tag p.i.)	bessere Wirkung	<1	bestimmte Wirkungen	++	32	<1	<1	bessere antimykotische Wirkung	>64	–	–	–	–	–
Cc1cccc(Cl)c1Oc1ccc(C(O)Cn2cncn2)cc1 (stereo not drawn) [Beispiel 47]	++++ (gute Wirkung = 80 % Ueberlebende am 6.Tag p.i.)	bessere Wirkung	–	bestimmte Wirkungen	++++	–	–	–	bessere antimykotische Wirkung	–	< 1	8 (≈ 24.3 µM)	< 1	< 1	8 (≈ 24.3 µM)
C=CCC(O)(c1ccc(Oc2ccc(Cl)cc2)cc1)C(CCC)n1cncn1 (stereo not drawn) [Beispiel 46]	++++ (gute Wirkung = 80 % Ueberlebende am 6.Tag p.i.)	bessere Wirkung	–	–	+	–	–	–	bessere antimykotische Wirkung	–	< 1	8 (≈ 20.1 µM)	< 1	8 (≈ 20.1 µM)	32 (≈ 80.4 µM)
CCCC(n1cncn1)C(C)(O)c1ccc(Oc2ccc(Cl)cc2)cc1 (stereo not drawn) [Beispiel 43]	+++++ (sehr gute Wirkung = 90 % Ueberlebende am 6.Tag p.i.)	bessere Wirkung	–	bestimmte Wirkungen	+++	–	–	–	bessere antimykotische Wirkung	–	< 1	16 (≈ 43 µM)	< 1	4 (≈ 10.8 µM)	> 64
CC(n1cncn1)C(O)(Cc1ccc(Cl)cc1)c1ccc(Oc2ccc(Cl)cc2)cc1 (stereo not drawn) [Beispiel 45]	+	bessere Wirkung	–	bestimmte Wirkungen	+	–	–	–	bessere antimykotische Wirkung	–	2 (≈ 4.4 µM)	32 (≈ 70.4 µM)	< 1	< 1	> 64
CCCC(C(=O)c1ccc(Oc2ccc(Cl)cc2)cc1)n1cncn1 (stereo not drawn) [Beispiel 6]	+++ (Wirkung = 60 % Ueberlebende am 6.Tag p.i.)	bessere Wirkung	–	bestimmte Wirkungen	++++	–	–	–	–	–	–	–	–	–	–
CC(C(O)c1ccc(Oc2ccc(Cl)cc2)cc1)n1cncn1 (stereo not drawn) [Beispiel 35]	+++ (Wirkung = 60 % Ueberlebende am 6.Tag p.i.)	bessere Wirkung	–	bestimmte Wirkungen	+++	–	–	–	bessere antimykotische Wirkung	–	< 1	8 (≈ 24.3 µM)	< 1	2 (≈ 6.06 µM)	32 (≈ 97 µM)
CCCC(C(O)c1ccc(Oc2ccc(Cl)cc2)cc1)n1cncn1 (single isomer, unassigned) [Beispiel 32]	+++++ (sehr gute Wirkung = 90 % Ueberlebende am 6.Tag p.i.)	bessere Wirkung	–	bestimmte Wirkungen	+++	–	–	–	–	–	–	–	–	–	–
CCC(C(O)c1ccc(Oc2ccc(Cl)cc2)cc1)n1cncn1 (single isomer, unassigned) [Beispiel 29]	+++++ (sehr gute Wirkung = 90 % Ueberlebende am 6.Tag p.i.)	bessere Wirkung	–	bestimmte Wirkungen	+++	8	8	8	bessere antimykotische Wirkung	–	< 1	–	–	–	32 (≈ 93.1 µM)
CCC(C(=O)c1ccc(Oc2ccc(Cl)cc2)cc1)n1ccnc1 (stereo not drawn) [Beispiel 24]	+++ (Wirkung = 60 % Ueberlebende am 6.Tag p.i.)	bessere Wirkung	–	bestimmte Wirkungen	+++	–	–	–	bessere antimykotische Wirkung	–	4 (≈ 11.7 µM)	4 (≈ 11.7 µM)	4 (≈ 11.7 µM)	8 (≈ 23.5 µM)	8 (≈ 23.5 µM)
